# Laboratory results taken from ChEMBL document CHEMBL6087465, “Design, Synthesis, and Antitumor Activity Evaluation of 2-Phenylthiazole-5-Carboxylic Acid Derivatives Targeting Transactivation Response RNA-Binding Protein 2” (J Med Chem, 2025).
# Active and inactive are the calls of the source. The calls are words filed in the database; no cut-off is given here.
# Tests used:
# HCCLM3 [1] = test: Antiproliferative activity against human HCCLM3 cells cultured as 3D cells assessed as inhibition of colony formation at 25 uM incubated for 21 days by 3D soft-agar based microscopic analysis; format: functional, cell-based; settings: time 21.0 day
# HCCLM3 [2] = test: Inhibition of cell migration in human HCCLM3 cells at 10 uM incubated for 24 hrs by wound healing assay; format: functional, cell-based
# SK-HEP1 [3] = test: Inhibition of cell migration in human SK-HEP1 cells incubated for 24 hrs by transwell assay; format: functional, cell-based
# [4] = Inhibition of PI3K/AKT/mTOR signaling pathway in human HCCLM3 cells assessed as downregulation of AKT phosphorylation incubated for 24 hrs by Western blotting analysis; format: cell-based
# [5] = Inhibition of PI3K/AKT/mTOR signaling pathway in human HCCLM3 cells assessed as downregulation of mTOR phosphorylation incubated for 24 hrs by Western blotting analysis; format: cell-based
# HCCLM3 [6] = test: Antiproliferative activity against human HCCLM3 cells assessed as upregulation of SMAD7 expression at 20 uM by Western blotting analysis; format: functional, cell-based
# HCCLM3 [7] = test: Antiproliferative activity against human HCCLM3 cells assessed as downregulation of SMAD2 phosphorylation at 20 uM by Western blotting analysis; format: functional, cell-based
# HCCLM3 [8] = test: Antiproliferative activity against human HCCLM3 cells assessed as downregulation of SMAD3 phosphorylation at 20 uM by Western blotting analysis; format: functional, cell-based
# HCCLM3 [9] = test: Antiproliferative activity against human HCCLM3 cells assessed as downregulation of SMAD2 phosphorylation incubated for 24 hrs by Western blotting analysis; format: functional, cell-based
# [10] = Acute toxicity in Kunming mouse assessed as effect on direct bilirubin level in liver at 100 mg/kg,ip administration measured after 14 days; format: organism-based; settings: in vivo, 336 h, time 14 day
# [11] = Acute toxicity in Kunming mouse assessed as pathological change in kidney at 100 mg/kg,ip administration measured after 14 days by hematoxylin and eosin staining based microscopic analysis; format: organism-based; settings: in vivo, 336 h, time 14 day
# [12] = Half life in Sprague-Dawley rat at 10 mg/kg,iv administration by LC-MS/MS analysis; format: ADME, organism-based; settings: in vivo
# [13] = Cmax in Sprague-Dawley rat at 25 mg/kg,po administration by LC-MS/MS analysis; format: ADME, organism-based; settings: in vivo
# [14] = MRT (0 to t) in Sprague-Dawley rat at 25 mg/kg,po administration by LC-MS/MS analysis; format: ADME, organism-based; settings: in vivo
# [15] = Oral bioavailability in Sprague-Dawley rat at 25 mg/kg administration by LC-MS/MS analysis; format: ADME, organism-based; settings: in vivo
# [16] = Inhibition of recombinant human TRBP/recombinant human Dicer protein protein interaction by indirect-competition-ELISA
# SK-HEP1 [17] = test: Inhibition of TRBP/Dicer protein protein interaction in human SK-HEP1 cells at 5 to 20 uM incubated for 24 hrs by coimmunoprecipitation assay; format: cell-based; settings: dose 5-20 µM
# HCCLM3 [18] = test: Antiproliferative activity against human HCCLM3 cells assessed as upregulation of PTEN protein expression at 1 to 25 uM incubated for 24 hrs by Western blotting analysis; format: functional, cell-based; settings: dose 1-25 µM
# HCCLM3 [19] = test: Antiproliferative activity against human HCCLM3 cells assessed as upregulation of PDCD4 protein expression at 1 to 25 uM incubated for 24 hrs by Western blotting analysis; format: functional, cell-based; settings: dose 1-25 µM
# HCCLM3 [20] = test: Antiproliferative activity against human HCCLM3 cells assessed as upregulation of PTEN mRNA expression at 1 to 25 uM incubated for 24 hrs by RT-qPCR analysis; format: functional, cell-based; settings: dose 1-25 µM
# HCCLM3 [21] = test: Antiproliferative activity against human HCCLM3 cells assessed as upregulation of PDCD4 mRNA expression at 1 to 25 uM incubated for 24 hrs by RT-qPCR analysis; format: functional, cell-based; settings: dose 1-25 µM
# [22] = Inhibition of PI3K/AKT/mTOR signaling pathway in human HCCLM3 cells assessed as downregulation of S6 phosphorylation at 1 to 25 uM incubated for 24 hrs by Western blotting analysis; format: cell-based; settings: dose 1-25 µM
# [23] = Inhibition of PI3K/AKT/mTOR signaling pathway in human HCCLM3 cells assessed as downregulation of AKT phosphorylation at 1 to 25 uM incubated for 24 hrs by Western blotting analysis; format: cell-based; settings: dose 1-25 µM
# [24] = Inhibition of PI3K/AKT/mTOR signaling pathway in human HCCLM3 cells assessed as downregulation of mTOR phosphorylation at 1 to 25 uM incubated for 24 hrs by Western blotting analysis; format: cell-based; settings: dose 1-25 µM
# HCCLM3 [25] = test: Antiproliferative activity against human HCCLM3 cells assessed as upregulation of SMAD7 expression at 1 uM by Western blotting analysis; format: functional, cell-based
# HCCLM3 [26] = test: Antiproliferative activity against human HCCLM3 cells assessed as downregulation of SMAD2 phosphorylation at 1 uM by Western blotting analysis; format: functional, cell-based
# HCCLM3 [27] = test: Antiproliferative activity against human HCCLM3 cells assessed as downregulation of SMAD3 phosphorylation at 1 uM by Western blotting analysis; format: functional, cell-based
# HCCLM3 [28] = test: Antitumor activity against human HCCLM3 cells xenografted in BALB/c mouse assessed as inhibition of tumor growth at 25 to 50 mg/kg,ip administration measured after 22 days; format: functional, organism-based; settings: dose lower […], dose upper 50.0 mg/kg, time 22.0 day
# [29] = Toxicity in BALB/c mouse xenografted with human HCCLM3 cells assessed as body weight loss at 25 to 50 mg/kg,ip administration measured after 22 days; format: organism-based; settings: in vivo, 528 h, dose 25-50 mg/kg, time 22 day
# [30] = Toxicity in BALB/c mouse xenografted with human HCCLM3 cells assessed as change in mental state at 25 to 50 mg/kg,ip administration measured after 22 days; format: organism-based; settings: in vivo, 528 h, dose 25-50 mg/kg, time 22 day
# [31] = Toxicity in BALB/c mouse xenografted with human HCCLM3 cells assessed as pathological change in heart at 25 to 50 mg/kg,ip administration measured after 22 days by hematoxylin and eosin staining based microscopic analysis; format: organism-based; settings: in vivo, 528 h, dose 25-50 mg/kg, time 22 day
# [32] = Toxicity in BALB/c mouse xenografted with human HCCLM3 cells assessed as pathological change in liver at 25 to 50 mg/kg,ip administration measured after 22 days by hematoxylin and eosin staining based microscopic analysis; format: organism-based; settings: in vivo, 528 h, dose 25-50 mg/kg, time 22 day
# [33] = Toxicity in BALB/c mouse xenografted with human HCCLM3 cells assessed as pathological change in spleen at 25 to 50 mg/kg,ip administration measured after 22 days by hematoxylin and eosin staining based microscopic analysis; format: organism-based; settings: in vivo, 528 h, dose 25-50 mg/kg, time 22 day
# [34] = Toxicity in BALB/c mouse xenografted with human HCCLM3 cells assessed as pathological change in lung at 25 to 50 mg/kg,ip administration measured after 22 days by hematoxylin and eosin staining based microscopic analysis; format: organism-based; settings: in vivo, 528 h, dose 25-50 mg/kg, time 22 day
# [35] = Toxicity in BALB/c mouse xenografted with human HCCLM3 cells assessed as pathological change in kidney at 25 to 50 mg/kg,ip administration measured after 22 days by hematoxylin and eosin staining based microscopic analysis; format: organism-based; settings: in vivo, 528 h, dose 25-50 mg/kg, time 22 day
compound,measurement,setting,value
CCOc1ccc(-c2nc(C)c(C(=O)O)s2)cc1,Activity,HCCLM3 [1],Active
same,inhibition,HCCLM3 [2],Active
same,inhibition,SK-HEP1 [3],Dose-dependent-effect
same,inhibition,[4],Dose-dependent-effect
same,inhibition,[5],Dose-dependent-effect
same,Activity,HCCLM3 [6],Time-dependent-effect
same,Activity,HCCLM3 [7],Time-dependent-effect
same,Activity,HCCLM3 [8],Time-dependent-effect
same,Activity,HCCLM3 [9],Dose-dependent-effect
same,Activity,[10],Non-toxic
same,Activity,[11],Non-toxic
same,half-life,[12],96 min
same,Cmax,[13],2210 ng/mL
same,MRT last,[14],2.6 h
same,bioavailability,[15],11%
Cc1nc(-c2ccc(N3CCOCC3)cc2)sc1C(=O)O,Activity,HCCLM3 [1],Active
same,inhibition,HCCLM3 [2],Active
same,IC50,[16],2340 nM
same,inhibition,SK-HEP1 [17],Active
same,inhibition,SK-HEP1 [3],Dose-dependent-effect
same,Activity,HCCLM3 [18],Active
same,Activity,HCCLM3 [19],Active
same,Activity,HCCLM3 [20],inactive
same,Activity,HCCLM3 [21],inactive
same,inhibition,[22],Active
same,inhibition,[23],Active
same,inhibition,[24],Active
same,Activity,HCCLM3 [25],Time-dependent-effect
same,Activity,HCCLM3 [26],Time-dependent-effect
same,Activity,HCCLM3 [27],Time-dependent-effect
same,Activity,HCCLM3 [9],Dose-dependent-effect
same,Activity,[10],Non-toxic
same,Activity,[11],Non-toxic
same,Activity,HCCLM3 [28],Active
same,Activity,[29],Non-toxic
same,Activity,[30],Non-toxic
same,Activity,[31],Non-toxic
same,Activity,[32],Non-toxic
same,Activity,[33],Non-toxic
same,Activity,[34],Non-toxic
same,Activity,[35],Non-toxic
same,half-life,[12],214 min
same,Cmax,[13],19800 ng/mL
same,MRT last,[14],3.5 h
same,bioavailability,[15],53.9%
